Here are results for 31 compounds from patent US11964973B2 (priority 2019, dated 2024).

For one experiment, the system named is Human venous whole blood (IFN-γ). The experiment in a line: Human whole blood IFN-γ assay. In kind it is cell-based. To be noted: Homo sapiens, 24 h, human whole blood, anti-CD3 plus anti-CD28, 24 hours; read-out: INFg Whole Blood Normalized Agonist EC50. As to the method: Assay 10: Human Whole Blood IFN-γ Assay
Human venous whole blood (22.5 μL per well), obtained from healthy donors, was pre-treated with compounds for one hour at 37° C. in a humidified 95% air/5% CO2 incubator. The blood was stimulated with 2.5 μL anti-human CD3 and anti-CD28 mAb at a final concentration of 1 μg/mL each for 24 hours at 37° C. IFN-γ in the supernatants was measured using AlphLISA kit (Cat #AL217).
Take `CC[C@@H]1CN(c2cc(=O)n(C)c3ccc(C#N)nc23)CC[C@H]1Oc1ccc(C(F)(F)F)cc1` (racemic) [Example 146, 8-((3R,4R)-3-ethyl-4-(4-(trifluoromethyl)phenoxy)piperidin-1-yl)-5-methyl-6-oxo-5,6-dihydro-1,5-naphthyridine-2-carbonitrile]: the EC50 worked out at 1700 nM.

Take `C[C@@H]1CN(c2cc(=O)n(C)c3ccc(C#N)nc23)CC[C@H]1Oc1ccc(F)cc1` [Example 128, 8-((3R,4R)-4-(4-fluorophenoxy)-3-methylpiperidin-1-yl)-5-methyl-6-oxo-5,6-dihydro-1,5-naphthyridine-2-carbonitrile]: the EC50 was 20000 nM. Still for that read-out and setting: the result for `CCc1ccc(O[C@@H]2CCN(c3cc(=O)n(C)c4ccc(C#N)nc34)C[C@H]2C)cc1` (racemic) [Example 110, 8-((3R,4R)-4-(4-ethylphenoxy)-3-methylpiperidin-1-yl)-5-methyl-6-oxo-5,6-dihydro-1,5-naphthyridine-2-carbonitrile] reads 3000 nM. On the same count and under the same terms, the same measure for `C[C@@H]1CN(c2cc(=O)n(C)c3ccc(C#N)nc23)CC[C@H]1Oc1ccc(C2CCCCC2)cc1` (racemic) [Example 106, 8-((3R,4R)-4-(4-cyclohexylphenoxy)-3-methylpiperidin-1-yl)-5-methyl-6-oxo-5,6-dihydro-1,5-naphthyridine-2-carbonitrile]: 2200 nM; for `C[C@@H]1CN(c2cc(=O)n(C)c3ccc(C#N)nc23)CC[C@H]1Oc1ccc(F)cc1` (single isomer, unassigned) [Example 129]: 20000 nM. The same measure, in the same setting: the same measure for `CC[C@@H]1CN(c2cc(=O)n(C)c3ccc(C#N)nc23)CC[C@H]1Oc1ccc(C(C)C)cc1` (racemic) [Example 143, 8-((3R,4R)-3-ethyl-4-(4-isopropylphenoxy)piperidin-1-yl)-5-methyl-6-oxo-5,6-dihydro-1,5-naphthyridine-2-carbonitrile]: 2200 nM. `C[C@@H]1CN(c2cc(=O)n(C)c3ccc(C#N)nc23)CC[C@H]1Oc1ccc(C(C)(C)C)cc1` (single isomer, unassigned) [Example 90]: the EC50 came to 5600 nM. On the same count and under the same terms, the result for `CC[C@@H]1CN(c2cc(=O)n(C)c3ccc(C#N)nc23)CC[C@H]1Oc1cccc(C2CC2)c1` (racemic) [Example 155, 8-((3R,4R)-4-(3-cyclopropylphenoxy)-3-ethylpiperidin-1-yl)-5-methyl-6-oxo-5,6-dihydro-1,5-naphthyridine-2-carbonitrile] reads 20000 nM. Same read-out and setting: the same measure for `C[C@@H]1CN(c2cc(=O)n(C)c3ccc(C#N)nc23)CC[C@H]1Oc1ccc(C(C)(C)C)cc1` [Example 88, 8-((3R,4R)-4-(4-(tert-butyl)phenoxy)-3-methylpiperidin-1-yl)-5-methyl-6-oxo-5,6-dihydro-1,5-naphthyridine-2-carbonitrile]: 880 nM.

The experiment is the same for the next values; noted with them: Homo sapiens, human whole blood IFN-γ; read-out: INFg Whole Blood.
Regarding `C[C@@H]1CN(c2cc(=O)n(C)c3ccc(C#N)nc23)CC[C@@H]1Oc1ccc(C(F)(F)F)cn1` [Example 225, 5-methyl-8-((3R,4S)-3-methyl-4-((5-(trifluoromethyl)pyridin-2-yl)oxy)piperidin-1-yl)-6-oxo-5,6-dihydro-1,5-naphthyridine-2-carbonitrile], the EC50 was determined as 1800 nM. On the same count and under the same terms, the same measure for `CC(C)c1cccc(O[C@H]2CCN(c3cc(=O)n(C)c4ccc(C#N)nc34)C[C@H]2C)n1` (single isomer, unassigned) [Example 215]: 2100 nM. `CC(C)Oc1ccc(OC2CCN(c3cc(=O)n(C)c4ccc(C#N)nc34)CC2(C)C)nc1` (racemic) [Example 232, (+/−) 8-(4-((5-isopropoxypyridin-2-yl)oxy)-3,3-dimethylpiperidin-1-yl)-5-methyl-6-oxo-5,6-dihydro-1,5-naphthyridine-2-carbonitrile]: the EC50 came to 7000 nM. The same measure, in the same setting: the result for `C[C@@H]1CN(c2cc(=O)n(C)c3ccc(C#N)nc23)CC[C@@H]1Oc1ccc(C2CC2)cn1` [Example 224, 8-((3R,4S)-4-((5-cyclopropylpyridin-2-yl)oxy)-3-methylpiperidin-1-yl)-5-methyl-6-oxo-5,6-dihydro-1,5-naphthyridine-2-carbonitrile] reads 5800 nM. On the same count and under the same terms, the result for `C[C@@H]1CN(c2cc(=O)n(C)c3ccc(C#N)nc23)CC[C@@H]1Oc1ccc(C(F)(F)F)cc1` (racemic) [Example 186, (+/−) 5-methyl-8-(cis-3-methyl-4-(4-(trifluoromethyl)phenoxy)piperidin-1-yl)-6-oxo-5,6-dihydro-1,5-naphthyridine-2-carbonitrile] reads 1600 nM; that for `COc1ccnc(O[C@H]2CCN(c3cc(=O)n(C)c4ccc(C#N)nc34)C[C@H]2C)n1` [Example 218, 8-((3R,4S)-4-((4-methoxypyrimidin-2-yl)oxy)-3-methylpiperidin-1-yl)-5-methyl-6-oxo-5,6-dihydro-1,5-naphthyridine-2-carbonitrile], 20000 nM. `C[C@@H]1CN(c2cc(=O)n(C)c3ccc(C#N)nc23)CC[C@@H]1Oc1ncc(C2CC2)cn1` [Example 223, 8-((3R,4S)-4-((5-cyclopropylpyrimidin-2-yl)oxy)-3-methylpiperidin-1-yl)-5-methyl-6-oxo-5,6-dihydro-1,5-naphthyridine-2-carbonitrile]: the EC50 is 17000 nM.

The same experiment, now with this note: human whole blood IFN-γ; read-out: INFg Whole Blood.
`CC(C)c1ccnc(O[C@H]2CCN(c3cc(=O)n(C)c4ccc(C#N)nc34)C[C@H]2C)c1` (single isomer, unassigned) [Example 213]: the EC50 turned out to be 4900 nM. Same read-out and setting: the result for `CC(C)Oc1ccc(O[C@H]2CCN(c3cc(=O)n(C)c4ccc(C#N)nc34)C[C@@H]2O)nc1` (racemic) [Example 268, (±)-trans-8-(3-hydroxy-4-((5-isopropoxypyridin-2-yl)oxy)piperidin-1-yl)-5-methyl-6-oxo-5,6-dihydro-1,5-naphthyridine-2-carbonitrile] reads 13000 nM; that for `CO[C@@H]1CN(c2cc(=O)n(C)c3ccc(C#N)nc23)CC[C@H]1Oc1cccc(C(F)(F)F)c1` (racemic) [Example 262, (±)-trans-8-(3-methoxy-4-(3-(trifluoromethyl)phenoxy)piperidin-1-yl)-5-methyl-6-oxo-5,6-dihydro-1,5-naphthyridine-2-carbonitrile], 12000 nM; that for `C[C@@H]1CN(c2cc(=O)n(C)c3ccc(C#N)nc23)CC[C@@H]1Oc1ccc(C(F)(F)F)cc1` (single isomer, unassigned) [Example 188, 5-methyl-8-(cis-3-methyl-4-(4-(trifluoromethyl)phenoxy)piperidin-1-yl)-6-oxo-5,6-dihydro-1,5-naphthyridine-2-carbonitrile (rel)], 6400 nM. As to `CC(C)Oc1ccc(OC2CCN(c3cc(=O)n(C)c4ccc(C#N)nc34)CC2(C)C)nc1` (single isomer, unassigned) [Example 233, 8-(4-((5-isopropoxypyridin-2-yl)oxy)-3,3-dimethylpiperidin-1-yl)-5-methyl-6-oxo-5,6-dihydro-1,5-naphthyridine-2-carbonitrile (rel)], the EC50 was determined as 3300 nM. The same measure, in the same setting: the same measure for `CO[C@@H]1CN(c2cc(=O)n(C)c3ccc(C#N)nc23)CC[C@H]1Oc1cccc(C(F)(F)F)c1` (racemic) [Example 261, (±)-trans-8-(3-methoxy-4-(3-(trifluoromethyl)phenoxy)piperidin-1-yl)-5-methyl-6-oxo-5,6-dihydro-1,5-naphthyridine-2-carbonitrile]: 910 nM. Same read-out and setting: the same measure for `CO[C@@H]1CN(c2nc(=O)n(C)c3ccc(C#N)nc23)CC[C@H]1Oc1cccc(C(F)(F)F)c1` (racemic) [Example 276]: 1000 nM. The same measure, in the same setting: the result for `CO[C@H]1CN(c2cc(=O)n(C)c3ccc(C#N)nc23)CC[C@@H]1Oc1ccc(OC(C)C)cn1` (racemic) [Example 269, (±)-trans-8-(4-((5-isopropoxypyridin-2-yl)oxy)-3-methoxypiperidin-1-yl)-5-methyl-6-oxo-5,6-dihydro-1,5-naphthyridine-2-carbonitrile] reads 1600 nM.

Still in this experiment, the particulars now being: human whole blood, anti-CD3 plus anti-CD28, 24 hours; read-out: INFg Whole Blood Normalized Agonist EC50.
On to `C[C@@H]1CN(c2cc(=O)n(C)c3ccc(C#N)nc23)CC[C@H]1Oc1ccc(C(F)(F)F)cc1` (single isomer, unassigned) [Example 99], for which the EC50 is 2900 nM. The same measure, in the same setting: the result for `CC[C@@H]1CN(c2cc(=O)n(C)c3ccc(C#N)nc23)CC[C@H]1Oc1cccc(C2CC2)c1` [Example 157, 8-((3R,4R)-4-(3-cyclopropylphenoxy)-3-ethylpiperidin-1-yl)-5-methyl-6-oxo-5,6-dihydro-1,5-naphthyridine-2-carbonitrile] reads 2800 nM; that for `CC[C@@H]1CN(c2cc(=O)n(C)c3ccc(C#N)nc23)CC[C@H]1Oc1ccc(C(C)(C)CC)cc1` (single isomer, unassigned) [Example 151], 2400 nM; that for `C[C@@H]1CN(c2cc(=O)n(C)c3ccc(C#N)nc23)CC[C@H]1Oc1ccc(OC(F)(F)F)cc1` (single isomer, unassigned) [Example 81, 6-cyano-1-methyl-4-(trans-3-methyl-4-(4-(trifluoromethoxy)phenoxy)piperidin-1-yl)-1,5-naphthyridin-2(1H)-one (rel)], 2000 nM. With `CC[C@@H]1CN(c2cc(=O)n(C)c3ccc(C#N)nc23)CC[C@H]1Oc1ccc(C(C)(C)C)cc1` (single isomer, unassigned) [Example 154], the EC50 is 11000 nM. Regarding `CC[C@@H]1CN(c2cc(=O)n(C)c3ccc(C#N)nc23)CC[C@H]1Oc1ccc(C(F)(F)F)cc1` (single isomer, unassigned) [Example 148], the EC50 is 12000 nM. For `C[C@@H]1CN(c2cc(=O)n(C)c3ccc(C#N)nc23)CC[C@H]1Oc1ccc(F)c(F)c1` (single isomer, unassigned) [Example 105], the EC50 is 2000 nM.
